According to patent publication US20240158446A1, “CYCLIC COMPOUND HAVING SELECTIVE INHIBITORY ACTION ON KRAS OVER HRAS AND NRAS” (CHUGAI SEIYAKU KABUSHIKI KAISHA, priority 2021, published 2024):
Where a SMILES comes first, the peptide text is derived from it. Bridges are numbered along the chain shown (N, C = ends). [ ]: non-standard residue; d: D form. The star is where a group is joined. hPhe(3,5-F2-4-CF3) = N[C@@H](CCc1cc(F)c(C(F)(F)F)c(F)c1)C(=O)O; hPhe(3-Cl-4-CF3) = N[C@@H](CCc1ccc(C(F)(F)F)c(Cl)c1)C(=O)O; NPrPhe(4-CF3) = CCCN[C@@H](Cc1ccc(C(F)(F)F)cc1)C(=O)O; hPhe(3,4-Cl2) = N[C@@H](CCc1ccc(Cl)c(Cl)c1)C(=O)O; NMeGly(cPent) = CN[C@H](C(=O)O)C1CCCC1; Pro(4,4-F2) = O=C(O)[C@@H]1CC(F)(F)CN1; NMeGly(cBu) = CN[C@H](C(=O)O)C1CCC1; NMeD = CN[C@@H](CC(=O)O)C(=O)O; Ac4c(3-oxa) = NC1(C(=O)O)COC1; NMeL = CN[C@@H](CC(C)C)C(=O)O; Iva = CC[C@](C)(N)C(=O)O; Morpholide = C1CN(*)CCO1; NMeA = CN[C@@H](C)C(=O)O; Ac5c = NC1(C(=O)O)CCCC1; Aze = O=C(O)[C@@H]1CCN1; Ac4c = NC1(C(=O)O)CCC1; NEtG = CCNCC(=O)O; Sar = CNCC(=O)O

Experiments:
[1] = biological target: GDP-bound KRAS wild-type protein (Homo sapiens, UniProt P01116); experiment: Binding to KRAS by surface plasmon resonance (SPR), Single Cycle Kinetics; details: SPR Single Cycle Kinetics, GDP-bound KRAS wild-type protein, 1:1 binding model; read-out: KRAS KD
[2] = biological target: GDP-bound HRAS wild-type protein (Homo sapiens, UniProt P01112); experiment: Binding to HRAS by surface plasmon resonance (SPR), Single Cycle Kinetics; details: for HRAS/KRAS (ratio of KD value with respect to HRAS to KD value with respect to KRAS) / HRAS/KRAS (ratio of KD value for HRAS to KD value for KRAS): SPR, GDP-bound HRAS wild-type protein vs GDP-bound KRAS wild-type protein
[3] = biological target: GDP-bound NRAS wild-type protein (Homo sapiens, UniProt P01111); experiment: Binding to NRAS by surface plasmon resonance (SPR), Single Cycle Kinetics; details: for NRAS/KRAS (ratio of KD value with respect to NRAS to KD value with respect to KRAS) / NRAS/KRAS (ratio of KD value for NRAS to KD value for KRAS): SPR, GDP-bound NRAS wild-type protein vs GDP-bound KRAS wild-type protein
Chain of GDP-bound NRAS wild-type protein (P01111 whole entry): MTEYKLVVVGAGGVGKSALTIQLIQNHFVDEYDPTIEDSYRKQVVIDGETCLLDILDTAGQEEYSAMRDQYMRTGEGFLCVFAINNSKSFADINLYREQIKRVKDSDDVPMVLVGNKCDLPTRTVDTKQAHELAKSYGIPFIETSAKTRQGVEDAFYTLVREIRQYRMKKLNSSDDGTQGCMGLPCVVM

Chain of GDP-bound KRAS wild-type protein (P01116 whole entry): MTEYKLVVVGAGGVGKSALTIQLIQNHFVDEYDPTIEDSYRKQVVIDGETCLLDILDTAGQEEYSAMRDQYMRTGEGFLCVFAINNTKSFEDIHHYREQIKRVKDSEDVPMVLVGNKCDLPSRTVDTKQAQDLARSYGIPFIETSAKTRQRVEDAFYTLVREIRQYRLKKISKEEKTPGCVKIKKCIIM
Chain of GDP-bound HRAS wild-type protein (P01112 whole entry): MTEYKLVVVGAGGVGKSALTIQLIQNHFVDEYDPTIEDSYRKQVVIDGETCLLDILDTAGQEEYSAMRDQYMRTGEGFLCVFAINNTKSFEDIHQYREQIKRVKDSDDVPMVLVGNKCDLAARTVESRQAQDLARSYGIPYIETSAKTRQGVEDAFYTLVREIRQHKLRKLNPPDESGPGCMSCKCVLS

Kd [1] [nM] | Structure (SMILES) | HRAS/KRAS (ratio of KD value with respect to HRAS to KD value with respect to KRAS) [2] | NRAS/KRAS (ratio of KD value with respect to NRAS to KD value with respect to KRAS) [3] | HRAS/KRAS (ratio of KD value for HRAS to KD value for KRAS) [2] | NRAS/KRAS (ratio of KD value for NRAS to KD value for KRAS) [3] | HRAS/KRAS (ratio of KD value with respect to GDP-bound HRAS wild-type protein to KD value with respect to KRAS) ([2]; SPR KD ratio HRAS/KRAS, class symbols) | NRAS/KRAS (ratio of KD value with respect to GDP-bound NRAS wild-type protein to KD value with respect to KRAS) ([3]; SPR KD ratio NRAS/KRAS, class symbols)
2.3 | CCCN1C(=O)CN(C)C(=O)[C@@H]2CCN2C(=O)[C@H]([C@@H](C)CC)NC(=O)[C@H](CC(C)C)N(C)C(=O)C[C@@H](C(=O)N2CCOCC2)N(C)C(=O)[C@H](C2CCCC2)N(C)C(=O)C2(COC2)NC(=O)[C@@H]2CCCN2C(=O)[C@H](CCc2cc(F)c(C(F)(F)F)c(F)c2)NC(=O)CN(C)C(=O)[C@@H]1Cc1ccc(C(F)(F)F)cc1 [PP0782] ([NMeL]I[Aze][Sar][NPrPhe(4-CF3)][Sar][hPhe(3,5-F2-4-CF3)]P[Ac4c(3-oxa)][NMeGly(cPent)][NMeD]-Morpholide; lactam N-11) | B (a compound having 3 or more and less than 10 is denoted as B) | B (a compound having 3 or more and less than 10 is denoted as B) | – | – | – | –
0.22 | CCCN1C(=O)CN(C)C(=O)CN(C)C(=O)[C@H]([C@@H](C)CC)NC(=O)[C@H](C2CCC2)N(C)C(=O)C[C@@H](C(=O)N2CCOCC2)N(C)C(=O)[C@H](C2CCCC2)N(C)C(=O)C2(CCCC2)NC(=O)[C@@H]2CC(F)(F)CN2C(=O)[C@H](CCc2ccc(C(F)(F)F)c(Cl)c2)NC(=O)CN(C)C(=O)[C@@H]1Cc1ccc(C(F)(F)F)cc1 [PP0200] ([NMeGly(cBu)]I[Sar][Sar][NPrPhe(4-CF3)][Sar][hPhe(3-Cl-4-CF3)][Pro(4,4-F2)][Ac5c][NMeGly(cPent)][NMeD]-Morpholide; lactam N-11) | – | – | C (A compound having a KD ratio of 0.1 or more and less than 3 is denoted as C) | C (A compound having a KD ratio of 0.1 or more and less than 3 is denoted as C) | – | –
0.77 | CCCN1C(=O)CN(C)C(=O)CNC(=O)[C@H]([C@@H](C)CC)NC(=O)[C@H](CC(C)C)N(C)C(=O)C[C@@H](C(=O)N(C)C)NC(=O)[C@H](C2CCCC2)N(C)C(=O)C2(CCC2)NC(=O)[C@@H]2CC(F)(F)CN2C(=O)[C@H](CCc2ccc(C(F)(F)F)c(Cl)c2)NC(=O)CN(C)C(=O)[C@@H]1Cc1ccc(C(F)(F)F)cc1 [PP0364] ([NMeL]IG[Sar][NPrPhe(4-CF3)][Sar][hPhe(3-Cl-4-CF3)][Pro(4,4-F2)][Ac4c][NMeGly(cPent)]D-NMe2; lactam N-11) | – | – | B (a compound having 3 or more and less than 10 is denoted as B) | B (a compound having 3 or more and less than 10 is denoted as B) | – | –
0.16 | CCCN1C(=O)CN(C)C(=O)CN(C)C(=O)[C@H]([C@@H](C)CC)NC(=O)[C@H](CC(C)C)N(C)C(=O)C[C@@H](C(=O)N(C)C)N(C)C(=O)[C@H](C2CCCC2)N(C)C(=O)[C@](C)(CC)NC(=O)[C@@H]2CCCN2C(=O)[C@H](CCc2cc(F)c(C(F)(F)F)c(F)c2)NC(=O)CN(C)C(=O)[C@@H]1Cc1ccc(C(F)(F)F)cc1 [PP0805] ([NMeL]I[Sar][Sar][NPrPhe(4-CF3)][Sar][hPhe(3,5-F2-4-CF3)]P[Iva][NMeGly(cPent)][NMeD]-NMe2; lactam N-11) | C (A compound having a KD ratio of 0.1 or more and less than 3 is denoted as C) | B (a compound having 3 or more and less than 10 is denoted as B) | – | – | – | –
0.28 | CCCN1C(=O)CN(C)C(=O)CN(C)C(=O)[C@H]([C@@H](C)CC)NC(=O)[C@H](CC(C)C)N(C)C(=O)C[C@@H](C(=O)N2CCOCC2)N(C)C(=O)[C@H](C2CCCC2)N(C)C(=O)C2(CCCC2)NC(=O)[C@@H]2CCCN2C(=O)[C@H](CCc2ccc(Cl)c(Cl)c2)NC(=O)CN(C)C(=O)[C@@H]1Cc1ccc(C(F)(F)F)cc1 [PP0232] ([NMeL]I[Sar][Sar][NPrPhe(4-CF3)][Sar][hPhe(3,4-Cl2)]P[Ac5c][NMeGly(cPent)][NMeD]-Morpholide; lactam N-11) | – | – | B (a compound having 3 or more and less than 10 is denoted as B) | B (a compound having 3 or more and less than 10 is denoted as B) | – | –
0.33 | CCCN1C(=O)CN(C)C(=O)CN(CC)C(=O)[C@H]([C@@H](C)CC)NC(=O)[C@H](CC(C)C)N(C)C(=O)C[C@@H](C(=O)N2CCOCC2)N(C)C(=O)[C@H](C2CCCC2)N(C)C(=O)C2(CCCC2)NC(=O)[C@@H]2CC(F)(F)CN2C(=O)[C@H](CCc2ccc(C(F)(F)F)c(Cl)c2)NC(=O)CN(C)C(=O)[C@@H]1Cc1ccc(C(F)(F)F)cc1 [PP0399] ([NMeL]I[NEtG][Sar][NPrPhe(4-CF3)][Sar][hPhe(3-Cl-4-CF3)][Pro(4,4-F2)][Ac5c][NMeGly(cPent)][NMeD]-Morpholide; lactam N-11) | – | – | C (A compound having a KD ratio of 0.1 or more and less than 3 is denoted as C) | B (a compound having 3 or more and less than 10 is denoted as B) | – | –
0.59 | CCCN1C(=O)[C@@H]2CCN2C(=O)[C@H](C)N(C)C(=O)[C@H]([C@@H](C)CC)NC(=O)[C@H](CC(C)C)N(C)C(=O)C[C@@H](C(=O)N(C)C)NC(=O)[C@H](C2CCCC2)N(C)C(=O)C2(CCC2)NC(=O)[C@@H]2CCCN2C(=O)[C@H](CCc2ccc(C(F)(F)F)c(Cl)c2)NC(=O)CN(C)C(=O)[C@@H]1Cc1ccc(C(F)(F)F)cc1 [PP0380] ([NMeL]I[NMeA][Aze][NPrPhe(4-CF3)][Sar][hPhe(3-Cl-4-CF3)]P[Ac4c][NMeGly(cPent)]D-NMe2; lactam N-11) | – | – | B (a compound having 3 or more and less than 10 is denoted as B) | C (A compound having a KD ratio of 0.1 or more and less than 3 is denoted as C) | – | –
0.33 | CCCN1C(=O)CN(C)C(=O)CN(C)C(=O)[C@H]([C@@H](C)CC)NC(=O)[C@H](CC(C)C)N(C)C(=O)C[C@@H](C(=O)N(C)C)NC(=O)[C@H](C2CCCC2)N(C)C(=O)C2(CCCC2)NC(=O)[C@@H]2CCCN2C(=O)[C@H](CCc2ccc(C(F)(F)F)c(Cl)c2)NC(=O)CN(C)C(=O)[C@@H]1Cc1ccc(C(F)(F)F)cc1 [PP0355] ([NMeL]I[Sar][Sar][NPrPhe(4-CF3)][Sar][hPhe(3-Cl-4-CF3)]P[Ac5c][NMeGly(cPent)]D-NMe2; lactam N-11) | – | – | B (a compound having 3 or more and less than 10 is denoted as B) | B (a compound having 3 or more and less than 10 is denoted as B) | – | –
2.3 | CCC[C@H]1C(=O)N[C@@H]([C@@H](C)CC)C(=O)N(C)CC(=O)N(C)[C@H]2C/C=C\CCN(C2=O)[C@@H](Cc2ccc(C(F)(F)F)cc2)C(=O)N(C)CC(=O)N[C@@H](CCc2ccc(C(F)(F)F)c(Cl)c2)C(=O)N2CCOC[C@H]2C(=O)NC2(CC(C)(C)C2)C(=O)N(C)[C@@H](C(CC)CC)C(=O)N(C)[C@H](C(=O)N(C)C)CC(=O)N1C [PP2929] | – | – | – | – | A (a compound having 10 or more and less than 20 is denoted as A) | AA (a compound having 20 or more is denoted as AA)
